Publication PMC5830399, “Aggregating sequences that occur in many proteins constitute weak spots of bacterial proteostasis” (Nature Communications, 2018)
Values after ≈ are worked out from the molar mass of the structure shown. Peptide text beside a SMILES is read from it. * marks the point of attachment. FITC = O=C1OC2(c3ccc(O)cc3Oc3cc(O)ccc32)c2ccc(NC(=S)*)cc21

How the values were obtained:
Format in all cases: cell-based, Escherichia coli
E. coli O157:H7 [1] = test: Flow cytometry of bacteria treated with FITC peptides (uptake) and propidium iodide; conditions: for cells positive for FITC (peptide uptake): E. coli O157:H7, FITC-labeled peptide at MIC, flow cytometry; for PI-positive cells (membrane permeabilization): E. coli O157:H7, peptide at MIC, N = 4
Procedure: Using a double staining technique with propidium iodide (PI) and FITC peptides, killing rate and peptide uptake were evaluated in a two-dimensional analysis. Briefly, end-exponential growth phase E. coli O157 cells (10^8 CFU/mL) were washed with PBS and treated with peptides (P2 or Pro2/ FITC labeled) at MIC value for different time periods. Treated bacteria were again washed with PBS buffer three times. One microliter of PI (Invitrogen) was added to the bacteria, and after incubation for 5 min, the mixture was aliquoted (500 µL) into FACS tubes. To correlate the activity of the peptides with cell death, the fluorescence intensity was measured in two channels using the Gallios^TM Flow Cytometer, PI: excitation 536 nm and emission 617 nm, FITC: excitation 490 nm and emission 525 nm. Heated bacteria at 90 °C for 10 min were used as PI-positive control.

E. coli O157 = conditions: HPLC-purified peptide
Excerpt: In order to investigate whether APR redundancy does result in proteostatic collapse, we selected resynthesized and high-performance liquid chromatography (HPLC)-purified four positive peptides from the screen, P2, P5, P14, and P105, as well as three negative peptides, P3, P4, and P11, and confirmed their MIC and minimum bactericidal concentration (MBC) values (Table 1). […] These IBs, which are also called large polar aggregates, could be stained with pentameric formyl thiophene acetic acid (pFTAA, Fig. 1j and supplementary Fig. 3), an extensively characterized amyloid-specific dye[20]–[22], which specifically binds to amyloid-like aggregates as well as disease-associated protein IBs[22]. This IB-staining pattern could be observed for all bactericidal peptides, but not for any of the other peptides, although some other pFTAA-positive structures could be discerned (Supplementary Fig. 3). We confirmed the cross-β-structure content of IB using thioflavin-T staining and correlative atomic force microscopy nanoimaging and Fourier transform infrared spectroscopy (Supplementary Note 2 and Supplementary Fig. 4).

E. coli O157:H7 [2] = conditions: E. coli O157(:H7); HPLC-purified peptide; broth microdilution (EUCAST), LB, overnight 37 °C, OD 590 nm
Procedure: The MICs of active peptides were determined via the Broth microdilution assay according to the EUCAST guideline, which was performed in 96-well polystyrene flat bottom microtiter plates (BD Biosciences). Briefly, a single colony was inoculated into 5 mL LB medium and grown to the end-exponential growth phase in a shaking incubator at 37 °C. Cultures were subsequently diluted to an OD600 (optical density) of 0.002 ([…]) in fresh LB medium. One hundred microliters of LB medium with different concentration of peptides ranging from 100 to 0.75 µg/mL were serially diluted to the sterile 96-well plate (at least three wells in each plate). Afterwards, 100 µL of the diluted bacteria were pipetted into 96-well plates containing different concentration of peptides. In each plate, the grown bacteria with the maximum concentration of carrier and medium were considered as positive and negative controls, respectively. Thereafter, 96-well plates were statically incubated overnight at 37 °C to allow bacterial growth. OD was measured at 590 nm for 1 s using a multipurpose ultraviolet–visible plate reader, and the absorbance of the growth bacteria was measured using a Perkin Elmer spectrophotometer (1420 Multilabel Counter Victor 3).

| Structure (SMILES) | cells positive for FITC (peptide uptake) (E. coli O157:H7 [1]; after 15 min, N = 4, mean and s.d.) [%] | cells positive for FITC (peptide uptake) (E. coli O157:H7 [1]; after 1 h and beyond) [%] | PI-positive cells (membrane permeabilization) (E. coli O157:H7 [1]; after 15 min) [%] | PI-positive cells (membrane permeabilization) (E. coli O157:H7 [1]; after 3 h) [%] | MBC (E. coli O157) [µg/mL] | MIC (E. coli O157:H7 [2]) [µg/mL] |
| --- | --- | --- | --- | --- | --- | --- |
| CC(C)C[C@H](NC(=O)CNC(=O)[C@H](CCCNC(=N)N)NC(=O)[C@@H]1CCCN1C(=O)[C@H](CCCNC(=N)N)NC(=O)[C@H](CCCNC(=N)N)NC(=O)[C@@H](NC(=O)[C@H](CC(C)C)NC(=O)[C@H](C)NC(=O)[C@H](CC(C)C)NC(=O)CNC(=O)[C@H](CC(C)C)NC(=O)CNC(=O)[C@H](CCCNC(=N)N)NC(=S)Nc1ccc2c(c1)C(=O)OC21c2ccc(O)cc2Oc2cc(O)ccc21)C(C)C)C(=O)NCC(=O)N[C@@H](CC(C)C)C(=O)N[C@@H](C)C(=O)N[C@@H](CC(C)C)C(=O)N[C@H](C(=O)N[C@@H](CCCNC(=N)N)C(=O)N[C@@H](CCCNC(=N)N)C(=O)O)C(C)C [FITC-P2] ({FITC}-RGLGLALVRRPRGLGLALVRR-OH; N-terminus and C-terminus assumed) | 97.7 ± 2.9 | ~100 | 2.1 ± 1.3 | 85 ± 13.2 |  |  |
| CC(C)C[C@H](NC(=O)CNC(=O)[C@H](CCCNC(=N)N)NC(=O)[C@@H]1CCCN1C(=O)[C@H](CCCNC(=N)N)NC(=O)[C@H](CCCNC(=N)N)NC(=O)[C@@H]1CCCN1C(=O)[C@H](CC(C)C)NC(=O)[C@H](C)NC(=O)[C@@H]1CCCN1C(=O)CNC(=O)[C@H](CC(C)C)NC(=O)CNC(=O)[C@@H](N)CCCNC(=N)N)C(=O)NCC(=O)N1CCC[C@H]1C(=O)N[C@@H](C)C(=O)N[C@@H](CC(C)C)C(=O)N1CCC[C@H]1C(=O)N[C@@H](CCCNC(=N)N)C(=O)N[C@@H](CCCNC(=N)N)C(=O)O [P2Pro] (H-RGLGPALPRRPRGLGPALPRR-OH) |  |  |  |  | >100 |  |
| CC(C)C[C@H](NC(=O)[C@H](C)NC(=O)[C@H](CCCNC(=N)N)NC(=O)[C@@H]1CCCN1C(=O)[C@H](CCCNC(=N)N)NC(=O)[C@H](CCCNC(=N)N)NC(=O)[C@H](CC(C)C)NC(=O)[C@H](CC(C)C)NC(=O)[C@@H](NC(=O)[C@@H](NC(=O)[C@H](CC(C)C)NC(=O)[C@H](CC(C)C)NC(=O)[C@H](C)NC(=O)[C@H](CCCNC(=N)N)NC(=O)[C@@H](N)CCCNC(=N)N)[C@@H](C)O)[C@@H](C)O)C(=O)N[C@@H](CC(C)C)C(=O)N[C@H](C(=O)N[C@H](C(=O)N[C@@H](CC(C)C)C(=O)N[C@@H](CC(C)C)C(=O)N[C@@H](CCCNC(=N)N)C(=O)N[C@@H](CCCNC(=N)N)C(=O)O)[C@@H](C)O)[C@@H](C)O [P5R] (H-RRALLTTLLRRPRALLTTLLRR-OH) |  |  |  |  | 12 (≈ 4.51 µM) | 12 (≈ 4.51 µM) |
| CC(C)C[C@H](NC(=O)[C@H](C)NC(=O)[C@H](CCCNC(=N)N)NC(=O)[C@@H]1CCCN1C(=O)[C@H](CCCNC(=N)N)NC(=O)[C@H](CCCNC(=N)N)NC(=O)[C@H](CC(C)C)NC(=O)[C@H](CC(C)C)NC(=O)[C@@H](NC(=O)[C@@H](NC(=O)[C@H](CC(C)C)NC(=O)[C@H](CC(C)C)NC(=O)[C@H](C)NC(=O)[C@@H](N)CCCNC(=N)N)[C@@H](C)O)[C@@H](C)O)C(=O)N[C@@H](CC(C)C)C(=O)N[C@H](C(=O)N[C@H](C(=O)N[C@@H](CC(C)C)C(=O)N[C@@H](CC(C)C)C(=O)N[C@@H](CCCNC(=N)N)C(=O)N[C@@H](CCCNC(=N)N)C(=O)O)[C@@H](C)O)[C@@H](C)O [P5] (H-RALLTTLLRRPRALLTTLLRR-OH) |  |  |  |  | 6 (≈ 2.4 µM) | 6 (≈ 2.4 µM) |
| CC(C)C[C@H](NC(=O)CNC(=O)[C@H](CCCNC(=N)N)NC(=O)[C@@H]1CCCN1C(=O)[C@H](CCCNC(=N)N)NC(=O)[C@H](CCCNC(=N)N)NC(=O)[C@H](C)NC(=O)[C@H](CC(C)C)NC(=O)[C@H](CC(C)C)NC(=O)[C@H](C)NC(=O)[C@H](CC(C)C)NC(=O)[C@H](CC(C)C)NC(=O)CNC(=O)[C@@H](N)CCCNC(=N)N)C(=O)N[C@@H](CC(C)C)C(=O)N[C@@H](C)C(=O)N[C@@H](CC(C)C)C(=O)N[C@@H](CC(C)C)C(=O)N[C@@H](C)C(=O)N[C@@H](CCCNC(=N)N)C(=O)N[C@@H](CCCNC(=N)N)C(=O)O [P14] (H-RGLLALLARRPRGLLALLARR-OH) |  |  |  |  | 6 (≈ 2.55 µM) | 6 (≈ 2.55 µM) |
| CC(C)C[C@H](NC(=O)[C@H](C)NC(=O)[C@@H](N)CCCNC(=N)N)C(=O)N[C@@H](CC(C)C)C(=O)N[C@@H](CCCNC(=N)N)C(=O)N[C@H](C(=O)N[C@@H](CC(C)C)C(=O)N[C@@H](CC(C)C)C(=O)N[C@@H](CCCNC(=N)N)C(=O)N[C@@H](CCCNC(=N)N)C(=O)N1CCC[C@H]1C(=O)N[C@@H](CCCNC(=N)N)C(=O)N[C@@H](C)C(=O)N[C@@H](CC(C)C)C(=O)N[C@@H](CC(C)C)C(=O)N[C@H](C(=O)N[C@H](C(=O)N[C@@H](CC(C)C)C(=O)N[C@@H](CC(C)C)C(=O)N[C@@H](CCCNC(=N)N)C(=O)N[C@@H](CCCNC(=N)N)C(=O)O)[C@@H](C)O)[C@@H](C)O)[C@@H](C)O [P105] (H-RALLRTLLRRPRALLTTLLRR-OH) |  |  |  |  | 12 (≈ 4.69 µM) | 12 (≈ 4.69 µM) |
